Laboratory results published in PubChem BioAssay (NCI).
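1) Cells in 96-well plates. 2) Compound, 48 h, 5 concentrations. 3) Linear interpolation between surrounding doses. 4) Unreached endpoint = highest concentration. At the GI50, growth is halved. Definition used: TGI = concentration required for complete inhibition of growth.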

What was measured:
Assay in all cases: NCI tumour cell line growth inhibition, 48 h
[1] = system: NCI/ADR-RES ovarian
[2] = system: U251 CNS
[3] = system: MDA-MB-231 breast
[4] = system: SW-620 colon
[5] = system: NCI-H23 lung
[6] = system: COLO 205 colon
[7] = system: MOLT-4 leukemia
[8] = system: UO-31 renal
[9] = system: DU-145 prostate
[10] = system: SF-539 CNS
[11] = system: KM12 colon
[12] = system: HL-60(TB) leukemia
[13] = system: UACC-62 melanoma
[14] = system: NCI-H522 lung
[15] = system: CCRF-CEM leukemia
[16] = system: A549 NSCLC
[17] = system: IGROV1 ovarian
[18] = system: ACHN renal
[19] = system: A498 renal
[20] = system: K-562 leukemia
[21] = system: HT29 colon
[22] = system: EKVX NSCLC
[23] = system: OVCAR-4 ovarian
[24] = system: SF-268 CNS
[25] = system: SK-MEL-5 melanoma
[26] = system: OVCAR-3 ovarian
[27] = system: SR leukemia
[28] = system: RXF 393 renal
[29] = system: NCI-H460 lung
[30] = system: HS 578T breast
[31] = system: OVCAR-5 ovarian
[32] = system: PC-3 prostate
[33] = system: MCF7 breast
[34] = system: HOP-92 NSCLC
[35] = system: RPMI-8226 leukemia
[36] = system: LOX IMVI melanoma
[37] = system: UACC-257 melanoma
[38] = system: T-47D breast
[39] = system: SNB-19 CNS
[40] = system: MALME-3M melanoma
[41] = system: 786-0 renal
[42] = system: SK-MEL-28 melanoma
[43] = system: SF-295 CNS
[44] = system: SNB-75 CNS
[45] = system: MDA-MB-435
[46] = system: HCC-2998 colon
[47] = system: HCT-116 colon
[48] = system: TK-10 renal
[49] = system: BT-549 breast
[50] = system: M14 melanoma
[51] = system: HOP-62 NSCLC
[52] = system: CAKI-1 renal
[53] = system: SN12C renal
[54] = system: OVCAR-8 ovarian

Structure (SMILES): Clc1cccc(/C=N/Nc2nc(N/N=C/c3cccc(Cl)c3)nc(N3CCOCC3)n2)c1
- GI50 [1]: 3.39 µM
- TGI [1]: > 100 µM
- GI50 [2]: 3.49 µM
- TGI [2]: > 100 µM
- GI50 [3]: 9.16 µM
- TGI [3]: > 100 µM
- GI50 [4]: 1.78 µM
- TGI [4]: > 100 µM
- GI50 [5]: 4.05 µM
- TGI [5]: > 100 µM
- GI50 [6]: 1.23 µM
- TGI [6]: > 100 µM
- GI50 [7]: 1.49 µM
- TGI [7]: 4.4 µM
- GI50 [8]: 1.61 µM
- TGI [8]: > 100 µM
- GI50 [9]: 2.62 µM
- TGI [9]: > 100 µM
- GI50 [10]: 5.39 µM
- TGI [10]: > 100 µM
- GI50 [11]: 3.61 µM
- TGI [11]: > 100 µM
- GI50 [12]: 0.505 µM
- TGI [12]: 3.08 µM
- GI50 [13]: 4.54 µM
- TGI [13]: > 100 µM
- GI50 [14]: 3.21 µM
- TGI [14]: > 100 µM
- GI50 [15]: 1.34 µM
- TGI [15]: 6.6 µM
- GI50 [16]: 3.57 µM
- TGI [16]: > 100 µM
- GI50 [17]: 4.61 µM
- TGI [17]: > 100 µM
- GI50 [18]: 2.11 µM
- TGI [18]: > 100 µM
- GI50 [19]: 1.67 µM
- TGI [19]: 5.65 µM
- GI50 [20]: 0.699 µM
- TGI [20]: 7.65 µM
- GI50 [21]: 1.34 µM
- TGI [21]: > 100 µM
- GI50 [22]: 4.23 µM
- TGI [22]: > 100 µM
- GI50 [23]: 5.82 µM
- TGI [23]: > 100 µM
- GI50 [24]: 5.1 µM
- TGI [24]: > 100 µM
- GI50 [25]: 1.72 µM
- TGI [25]: 3.44 µM
- GI50 [26]: 2.87 µM
- TGI [26]: 59.9 µM
- GI50 [27]: 0.329 µM
- TGI [27]: 2.58 µM
- GI50 [28]: 1 µM
- TGI [28]: 3.51 µM
- GI50 [29]: 3.47 µM
- TGI [29]: > 100 µM
- GI50 [30]: 3.76 µM
- TGI [30]: > 100 µM
- GI50 [31]: > 100 µM
- TGI [31]: > 100 µM
- GI50 [32]: 2.91 µM
- TGI [32]: > 100 µM
- GI50 [33]: 2.47 µM
- TGI [33]: > 100 µM
- GI50 [34]: 2.17 µM
- TGI [34]: > 100 µM
- GI50 [35]: 1.9 µM
- TGI [35]: 6.79 µM
- GI50 [36]: 2.99 µM
- TGI [36]: > 100 µM
- GI50 [37]: 2.47 µM
- TGI [37]: 6.52 µM
- GI50 [38]: 3.54 µM
- TGI [38]: > 100 µM
- GI50 [39]: 37 µM
- TGI [39]: > 100 µM
- GI50 [40]: 2.86 µM
- TGI [40]: 5.57 µM
- GI50 [41]: 1.07 µM
- TGI [41]: 4.12 µM
- GI50 [42]: 2.86 µM
- TGI [42]: 7.74 µM
- GI50 [43]: 4.13 µM
- TGI [43]: > 100 µM
- GI50 [44]: 3.33 µM
- TGI [44]: > 100 µM
- GI50 [45]: 4.24 µM
- TGI [45]: > 100 µM
- GI50 [46]: 2.73 µM
- TGI [46]: > 100 µM
- GI50 [47]: 1.27 µM
- TGI [47]: > 100 µM
- GI50 [48]: 5.89 µM
- TGI [48]: > 100 µM
- GI50 [49]: 3.22 µM
- TGI [49]: > 100 µM
- GI50 [50]: 3.08 µM
- TGI [50]: > 100 µM
- GI50 [51]: 4.67 µM
- TGI [51]: > 100 µM
- GI50 [52]: 2.77 µM
- TGI [52]: > 100 µM
- GI50 [53]: 4.99 µM
- TGI [53]: > 100 µM
- GI50 [54]: 4.58 µM
- TGI [54]: > 100 µM
